Laboratory results reported in US11028090B2 (Dong Wha Pharm. Co., Ltd., priority 2017, dated 2021).
Like-named read-outs stand apart in the source and are kept apart here.

How the values were obtained:
[1] = biological target: BRD4 (BD1+BD2) bromodomain (Homo sapiens (Human), UniProt O60885); assay: BRD4 binding inhibition (AlphaScreen, GST-BRD4 vs tetraacetylated histone H4 peptide)
How it was run: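 AlphaScreen read after 30 min dark incubation at room temperature with glutathione acceptor/streptavidin donor beads (10 μg/ml each). The beads were added to compound plus 100 nM biotin-H4 (K5,8,12,16-acetyl) peptide and 100 nM GST-BRD4 BD1+BD2 in pH 7.4 HEPES/Tween/BSA/DTT buffer.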

[2] = tested on: acute myelogenous leukemia cells (MV-4-11 cells)
Procedure: (§1) The following experiment was performed to evaluate the cytotoxicity of [1,2,4]triazolo[4,3-a]quinoxaline derivative according to the present invention to acute myelogenous leukemia cells (MV-4-11 cells).
(§2) Acute myelogenous leukemia cells (MV-4-11 cells) were distributed in a 96 well plate at the density of 5×10^3 cells/well. The plated cells were treated with the compounds of the present invention dissolved in DMSO at the different concentrations ranging from 0.01 μM to 10 μM. 72 hours later, the activities of the compounds were determined using CCK-8 reagent.

[3] = tested on: thymus cancer cells (Ty-82 cells); assay: Cytotoxicity to thymus cancer cells (Ty-82 cells), WST-1; settings: Homo sapiens, TY82, 72 h
Procedure: The following experiment was performed to evaluate the cytotoxicity of [1,2,4]triazolo[4,3-a]quinoxaline derivative according to the present invention to thymus cancer cells (Ty-82 cells).
First, thymus cancer cells (Ty-82 cells) were distributed in a 96 well plate at the density of 2.5×10^4 cells/well. 24 hours later, the plated cells were treated with the compounds of the present invention dissolved in DMSO at the different concentrations ranging from 0.01 μM to 10 μM. 72 hours later, the activities of the compounds were determined using WST-1 reagent.

[4] = tested on: acute myelogenous leukemia cells (MV-4-11 cells); assay: Cytotoxicity to acute myelogenous leukemia cells (MV-4-11 cells), CCK-8; settings: Homo sapiens, MV4-11, 72 h
Procedure: as §1, §2

[5] = GST-BRD4 (BD1+BD2) / biotinylated acetyl-histone H4 (Lys5,8,12,16) peptide, read-out: IC50, BRD4 binding inhibition
[6] = GST-BRD4 (BD1+BD2) vs biotinylated acetyl-histone H4 peptide, AlphaScreen, read-out: BRD4 IC50
[7] = read-out: IC50, cytotoxicity against thymus cancer cells
[8] = read-out: Ty-82 Cytotoxicity IC50
[9] = read-out: IC50, cytotoxicity against acute myelogenous leukemia cells
[10] = read-out: MV-4-11 Cytotoxicity IC50

IC50 [1, 5] [nM] | IC50 [1, 6] [nM] | Structure (SMILES) | IC50 [2] [nM] | IC50 [3, 7] [nM] | IC50 [3, 8] [nM] | IC50 [4, 9] [nM] | IC50 [4, 10] [nM] | IC50 ([1]; IC50, BRD4 binding inhibition, GST-BRD4 (BD1+BD2) / biotinylated acetyl-histone H4 (Lys5,8,12,16) peptide) [nM]
 | 51 | COc1ccc2c(c1)nc(NCCCCNC(=O)OC(C)C)c1nnc(C)n12 [Example 278, [4-(7-methoxy-1-methyl-[1,2,4]triazolo[4,3-a]quinoxaline-4-ylamino)-butyl]-carbamic acid isopropylester] |  | ≤ 500 | 180 | ≤ 200 | 160 | 
 | 61 | COc1c(C)ccc2c1nc(NCCCCNC(=O)CC(C)C)c1nnc(C)n12 [Example 135, N-[4-(6-methoxy-1,7-dimethyl-[1,2,4]triazolo[4,3-a]quinoxaline-4-ylamino)-butyl]-3-methyl-butyramide] |  |  | 730 |  | 360 | 
≤ 50 | 13 | COc1cc2nc(NCCCCNC(=O)OC3CCCC3)c3nnc(C)n3c2cc1OC [Example 66, [4-(7,8-dimethoxy-1-methyl-[1,2,4]triazolo[4,3-a]quinoxaline-4-ylamino)-butyl]-carbamic acid cyclopentyl-ester] |  | ≤ 500 | 58 | ≤ 200 | 110 | 
≤ 50 | 26 | COCCOc1cc2nc(NCCCCNC(=O)OC(C)C)c3nnc(C)n3c2cc1OCCOC [Example 165, {4-[7,8-bis-(2-methoxy-ethoxy)-1-methyl-[1,2,4]triazolo[4,3-a]quinoxaline-4-ylamino]-butyl}-carbamic acid isopropylester] |  |  | 580 |  | 220 | 
≤ 50 |  | COc1cc2nc(NCCCCNC(=O)c3cccc(Cl)c3Cl)c3nnc(C)n3c2cc1OC [Example 102, 2,3-dichloro-N-[4-(7,8-dimethoxy-1-methyl-[1,2,4]triazolo[4,3-a]quinoxaline-4-ylamino)-butyl]-benzamide] |  |  | 840 |  | 360 | 
≤ 50 | 12 | COc1cc2nc(NCCCCNC(=O)OC(C)C)c3nnc(C)n3c2cc1OC [Example 60, [4-(7,8-dimethoxy-1-methyl-[1,2,4]triazolo[4,3-a]quinoxaline-4-ylamino)-butyl]-carbamic acid isopropylester] |  | ≤ 500 | 120 | ≤ 200 | 10 | 
≤ 50 | 23 | COc1cc2nc(NCCCCNC(=O)OC(C)C)c3nnc(C)n3c2cc1C [Example 467, [4-(7-methoxy-1,8-dimethyl-[1,2,4]triazolo[4,3-a]quinoxaline-4-ylamino)-butyl]-carbamic acid isopropylester] |  | ≤ 500 | 200 | ≤ 200 | 66 | 
≤ 50 | 14 | COc1cc2nc(NCCCCNC(=O)Cc3cccs3)c3nnc(C)n3c2cc1OC [Example 84, N-[4-(7,8-dimethoxy-1-methyl-[1,2,4]triazolo[4,3-a]quinoxaline-4-ylamino)-butyl]-2-thiophene-2-yl-acetamide] |  | ≤ 500 | 27 | ≤ 200 | 10 | 
≤ 10 |  | COc1cc(C)c2nc(NCCCCNC(=O)OC(C)C)c3nnc(C)n3c2c1 [Example 161, [4-(8-methoxy-1,6-dimethyl-[1,2,4]triazolo[4,3-a]quinoxaline-4-ylamino)-butyl]-carbamic acid isopropylester] |  |  | 810 | ≤ 200 | 80 | 
≤ 50 | 20 | COc1cc2nc(NCCCCNC(=O)OC(C)(C)C)c3nnc(C)n3c2cc1OC [Example 57, [4-(7,8-dimethoxy-1-methyl-[1,2,4]triazolo[4,3-a]quinoxaline-4-ylamino)-butyl]-carbamic acid-tert-butylester] |  |  | 740 |  | 760 | 
≤ 50 | 18 | COc1cc2nc(NCCCCNC(=O)NC(C)(C)C)c3nnc(C)n3c2cc1OC [Example 88, 1-tert-butyl-3-[4-(7,8-dimethoxy-1-methyl-[1,2,4]triazolo[4,3-a]quinoxaline-4-ylamino)-butyl]-urea] |  |  | 970 |  | 510 | 
≤ 50 | 22 | COc1cc2nc(NCCCCNC(=O)OCC(C)C)c3nnc(C)n3c2cc1C [Example 468, [4-(7-methoxy-1,8-dimethyl-[1,2,4]triazolo[4,3-a]quinoxaline-4-ylamino)-butyl]-carbamic acid isobutylester] |  | ≤ 500 | 230 | ≤ 200 | 73 | 
≤ 50 | 22 | C=CCOC(=O)NCCCCNc1nc2cc(OC)c(OC)cc2n2c(C)nnc12 [Example 65, [4-(7,8-dimethoxy-1-methyl-[1,2,4]triazolo[4,3-a]quinoxaline-4-ylamino)-butyl]-carbamic acid allylester] |  | ≤ 500 | 370 | ≤ 200 | 130 | 
≤ 50 | 17 | Cc1nnc2c(NCCCCNC(=O)CC(C)C)nc3cc4c(cc3n12)OCCO4 [Example 181, 3-methyl-N-[4-(1-methyl-8,9-dihydro-7,10-dioxa-2,3,5,11b-tetraaza-cyclopenta[a]anthracene-4-ylamino)-butyl]-butyramide] |  | ≤ 500 | 300 | ≤ 200 | 50 | 
≤ 50 | 40 | COCCOc1cc2nc(NCCCCNC(=O)CC(C)(C)C)c3nnc(C)n3c2cc1OCCOC [Example 167, N-{4-[7,8-bis-(2-methoxy-ethoxy)-1-methyl-[1,2,4]triazolo[4,3-a]quinoxaline-4-ylamino]-butyl}-3,3-dimethyl-butyramide] |  |  | 880 |  | 510 | 
≤ 50 | 17 | COc1cc2nc(NCCCCNC(=O)c3ccc(C)nc3Cl)c3nnc(C)n3c2cc1OC [Example 108, 2-chloro-N-[4-(7,8-dimethoxy-1-methyl-[1,2,4]triazolo[4,3-a]quinoxaline-4-ylamino)-butyl]-6-methyl-nicotinamide] |  | ≤ 500 | 370 |  | 510 | 
≤ 50 | 21 | COc1cc2nc(NCCCCNC(=O)c3ccccc3Cl)c3nnc(C)n3c2cc1OC [Example 99, 2-chloro-N-[4-(7,8-dimethoxy-1-methyl-[1,2,4]triazolo[4,3-a]quinoxaline-4-ylamino)-butyl]-benzamide] |  |  | 550 |  | 230 | 

Structure (SMILES) | IC50 [1, 5] [nM] | IC50 [1, 6] [nM] | IC50 [2] [nM] | IC50 [3, 7] [nM] | IC50 [3, 8] [nM] | IC50 [4, 9] [nM] | IC50 [4, 10] [nM] | IC50 ([1]; IC50, BRD4 binding inhibition, GST-BRD4 (BD1+BD2) / biotinylated acetyl-histone H4 (Lys5,8,12,16) peptide) [nM]
CCc1nnc2c(NCCCCNC(=O)CC(C)C)nc3cc(OC)ccc3n12 [Example 622, [4-(7-methoxy-1-ethyl-[1,2,4]triazolo[4,3-a]quinoxaline-4-ylamino)-butyl]-3-methyl-butyramide] | ≤ 50 | 20 | 290 |  |  |  |  | 
Cc1nnc2c(NCCCCNC(=O)[C@@H](O)C(C)C)nc3cc(N4CCSCC4)ccc3n12 [Example 525, N-[4-(7-thiomorphonyl-4-yl-1-methyl-[1,2,4]triazolo[4,3-a]quinoxaline-4-ylamino)-butyl]-2-(S)-hydroxy-3-methyl-butyramide] | ≤ 50 | 11 | 200 |  |  |  |  | 
COc1ccc2nc(NCCCCNC(=O)CC(C)(C)C)c3nnc(C)n3c2c1 [Example 124, [4-(8-methoxy-1-methyl-[1,2,4]triazolo[4,3-a]quinoxaline-4-ylamino)-butyl]-3,3-dimethyl-butyramide] | ≤ 50 | 29 | 700 |  |  |  |  | 
Cc1nnc2c(NCCCCNC(=O)Oc3ccccc3)nc3cc4c(cc3n12)OCCO4 [Example 191, [4-(1-methyl-8,9-dihydro-7,10-dioxa-2,3,5,11b-tetraaza-cyclopenta[a]anthracene-4-ylamino)-butyl]-carbamic acid phenylester] |  | 10 |  | ≤ 500 | 310 | ≤ 200 | 90 | ≤ 10
